Source: ChEMBL document CHEMBL5665443, “Enzyme Inhibitor Single Concentration assay results for EUbOPEN Chemogenomics Library” (2024)

Assays:
[1] = target: T1, Endonuclease 8-like 2 (Homo sapiens) (UniProt Q969S2); conditions: Compound Concentration 10.0 uM;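 also: fluorescence at 594 nm reports NEIL2 cutting and release of a quenched double-stranded DNA oligo substrate, reduced signal read as inhibition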
T1 sequence (whole entry): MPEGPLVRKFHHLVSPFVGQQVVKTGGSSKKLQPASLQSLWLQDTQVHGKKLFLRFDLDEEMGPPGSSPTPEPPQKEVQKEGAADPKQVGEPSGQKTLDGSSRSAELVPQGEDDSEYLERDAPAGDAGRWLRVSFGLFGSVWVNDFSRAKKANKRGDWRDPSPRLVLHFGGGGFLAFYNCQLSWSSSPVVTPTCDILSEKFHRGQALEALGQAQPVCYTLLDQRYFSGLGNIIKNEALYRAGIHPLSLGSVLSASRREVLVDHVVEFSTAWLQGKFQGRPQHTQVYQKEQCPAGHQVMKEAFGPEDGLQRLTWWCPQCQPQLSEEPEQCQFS
Description: Inhibition of NEIL2 by quantifying inhibition of NEIL2-mediated cleavage and dissociation of quenched duplex DNA oligonucleotides, measured as fluorescence at 594 nm.

[2] = target: N-glycosylase/DNA lyase (Homo sapiens) (UniProt O15527); conditions: Compound Concentration 10.0 uM, Hit No;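 also: OGG1 cleavage of a quenched duplex DNA oligonucleotide, coupled to APE1 for strand incision, read as fluorescence at 594 nm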
Sequence of N-glycosylase/DNA lyase (Homo sapiens) (O15527 whole entry): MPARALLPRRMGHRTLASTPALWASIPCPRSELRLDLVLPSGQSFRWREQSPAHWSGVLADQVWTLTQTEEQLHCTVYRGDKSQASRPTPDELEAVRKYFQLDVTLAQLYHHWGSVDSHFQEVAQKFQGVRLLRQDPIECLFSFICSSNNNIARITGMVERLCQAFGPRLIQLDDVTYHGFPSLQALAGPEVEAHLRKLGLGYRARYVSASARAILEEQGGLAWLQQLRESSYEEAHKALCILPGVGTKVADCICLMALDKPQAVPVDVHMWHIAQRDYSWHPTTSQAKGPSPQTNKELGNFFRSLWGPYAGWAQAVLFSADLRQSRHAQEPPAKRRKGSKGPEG
Description: Inhibition of OGG1 by quantifying inhibition of OGG1-mediated cleavage and dissociation of quenched duplex DNA oligonucleotides, measured as fluorescence at 594 nm. To generate a functional strand incision and increase turn-over this assay is coupled to APE1.

[3] = target: T2, Endonuclease III-like protein 1 (Homo sapiens) (UniProt P78549); conditions: Compound Concentration 10.0 uM;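 also: enzyme assay tracking NTHL1 cutting and release of a quenched double-stranded DNA oligo substrate, read as fluorescence at 594 nm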
T2 sequence (whole entry): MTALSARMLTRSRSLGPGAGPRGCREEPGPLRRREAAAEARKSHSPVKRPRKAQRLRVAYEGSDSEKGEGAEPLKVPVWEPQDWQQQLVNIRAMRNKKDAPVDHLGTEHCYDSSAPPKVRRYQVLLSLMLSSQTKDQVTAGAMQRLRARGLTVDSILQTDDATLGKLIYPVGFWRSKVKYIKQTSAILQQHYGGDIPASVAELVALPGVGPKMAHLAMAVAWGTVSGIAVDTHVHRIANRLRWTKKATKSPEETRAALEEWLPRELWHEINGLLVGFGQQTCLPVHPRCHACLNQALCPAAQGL
Description: Inhibition of NTHL1 by quantifying inhibition of NTHL1-mediated cleavage and dissociation of quenched duplex DNA oligonucleotides, measured as fluorescence at 594 nm.

[4] = target: Endonuclease 8-like 1 (Homo sapiens) (UniProt Q96FI4); conditions: Compound Concentration 10.0 uM;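 also: fluorescence at 594 nm from quenched duplex DNA oligonucleotides released by NEIL1 cleavage and strand separation, reported as reduction of this enzyme activity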
Sequence of Endonuclease 8-like 1 (Homo sapiens) (Q96FI4 whole entry, the tested form may be a part): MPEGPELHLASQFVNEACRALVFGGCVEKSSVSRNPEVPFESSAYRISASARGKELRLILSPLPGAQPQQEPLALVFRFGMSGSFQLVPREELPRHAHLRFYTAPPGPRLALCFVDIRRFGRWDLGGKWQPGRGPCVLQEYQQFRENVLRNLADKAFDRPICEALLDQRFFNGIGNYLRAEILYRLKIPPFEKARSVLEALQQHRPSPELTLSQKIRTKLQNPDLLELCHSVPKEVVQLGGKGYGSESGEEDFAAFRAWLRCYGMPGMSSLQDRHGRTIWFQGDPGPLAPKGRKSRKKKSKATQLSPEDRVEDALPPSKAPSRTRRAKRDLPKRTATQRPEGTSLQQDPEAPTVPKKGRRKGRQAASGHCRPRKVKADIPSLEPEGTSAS
Description: Inhibition of NEIL1 by quantifying inhibition of NEIL1-mediated cleavage and dissociation of quenched duplex DNA oligonucleotides, measured as fluorescence at 594 nm.

[5] = target: Methyl-CpG-binding domain protein 4 (Homo sapiens) (UniProt O95243); conditions: Compound Concentration 10.0 uM, Hit No;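 also: MBD4 activity read as fluorescence at 594 nm from cleavage and release of a quenched duplex DNA oligonucleotide, with APE1 coupled to incise the strand and raise turnover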
Sequence of Methyl-CpG-binding domain protein 4 (Homo sapiens) (O95243 whole entry, the tested form may be a part): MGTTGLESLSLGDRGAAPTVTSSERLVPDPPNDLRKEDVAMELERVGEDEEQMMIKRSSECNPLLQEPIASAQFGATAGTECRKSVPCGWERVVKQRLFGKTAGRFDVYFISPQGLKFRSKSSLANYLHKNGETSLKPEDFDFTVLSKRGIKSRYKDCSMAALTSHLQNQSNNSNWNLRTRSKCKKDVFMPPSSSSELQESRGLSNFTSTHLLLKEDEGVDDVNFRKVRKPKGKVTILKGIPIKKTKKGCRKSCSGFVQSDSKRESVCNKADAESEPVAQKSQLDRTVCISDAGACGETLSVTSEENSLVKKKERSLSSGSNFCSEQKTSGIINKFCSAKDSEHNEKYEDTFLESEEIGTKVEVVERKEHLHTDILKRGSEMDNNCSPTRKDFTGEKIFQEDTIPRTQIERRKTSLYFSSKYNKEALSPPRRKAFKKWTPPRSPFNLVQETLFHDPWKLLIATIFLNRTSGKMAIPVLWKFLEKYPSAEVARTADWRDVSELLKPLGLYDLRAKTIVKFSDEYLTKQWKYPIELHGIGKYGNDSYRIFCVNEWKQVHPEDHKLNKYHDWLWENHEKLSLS
Description: Inhibition of MBD4 by quantifying inhibition of MBD4-mediated cleavage and dissociation of quenched duplex DNA oligonucleotides, measured as fluorescence at 594 nm. To generate a functional strand incision and increase turn-over this assay is coupled to APE1.

[6] = target: T3, Adenine DNA glycosylase (Homo sapiens) (UniProt Q9UIF7); conditions: Compound Concentration 10.0 uM, Hit No;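 also: human MUTYH activity read as 594 nm fluorescence from cleavage and release of a quenched DNA duplex, coupled with APE1 for strand incision, lower signal meaning inhibition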
T3 sequence (whole entry): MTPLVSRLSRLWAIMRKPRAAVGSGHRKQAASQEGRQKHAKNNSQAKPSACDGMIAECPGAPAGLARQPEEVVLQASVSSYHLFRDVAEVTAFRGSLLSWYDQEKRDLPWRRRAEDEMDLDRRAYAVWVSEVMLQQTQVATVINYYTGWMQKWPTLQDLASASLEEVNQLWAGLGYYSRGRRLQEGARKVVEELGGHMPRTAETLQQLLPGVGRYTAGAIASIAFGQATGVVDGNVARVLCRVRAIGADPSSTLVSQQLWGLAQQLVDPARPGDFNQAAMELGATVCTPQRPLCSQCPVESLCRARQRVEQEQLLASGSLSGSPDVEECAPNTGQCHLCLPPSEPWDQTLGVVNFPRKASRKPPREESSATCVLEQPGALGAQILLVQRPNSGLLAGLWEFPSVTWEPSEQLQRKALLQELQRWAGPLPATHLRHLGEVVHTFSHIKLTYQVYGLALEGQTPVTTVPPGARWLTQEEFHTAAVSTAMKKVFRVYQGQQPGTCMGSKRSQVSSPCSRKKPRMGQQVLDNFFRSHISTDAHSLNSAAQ
Description: Inhibition of MUTYH by quantifying inhibition of MUTYH-mediated cleavage and dissociation of quenched duplex DNA oligonucleotides, measured as fluorescence at 594 nm. To generate a functional strand incision and increase turn-over this assay is coupled to APE1.

[7] = target: DNA-3-methyladenine glycosylase (Homo sapiens) (UniProt P29372); conditions: Compound Concentration 10.0 uM, Hit No;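 also: enzyme assay where MPG cuts a quenched duplex DNA oligonucleotide probe, paired with APE1 for strand incision and turnover, read as fluorescence at 594 nm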
Sequence of DNA-3-methyladenine glycosylase (Homo sapiens) (P29372 whole entry): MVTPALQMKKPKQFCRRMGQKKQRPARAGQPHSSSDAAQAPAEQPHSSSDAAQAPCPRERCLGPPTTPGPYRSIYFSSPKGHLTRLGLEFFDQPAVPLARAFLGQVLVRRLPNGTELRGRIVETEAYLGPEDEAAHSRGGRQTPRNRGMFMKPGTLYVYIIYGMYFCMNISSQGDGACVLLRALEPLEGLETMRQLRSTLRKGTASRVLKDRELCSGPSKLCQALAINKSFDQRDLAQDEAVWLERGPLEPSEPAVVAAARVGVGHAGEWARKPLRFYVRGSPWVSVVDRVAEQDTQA
Description: Inhibition of MPG by quantifying inhibition of MPG-mediated cleavage and dissociation of quenched duplex DNA oligonucleotides, measured as fluorescence at 594 nm. To generate a functional strand incision and increase turn-over this assay is coupled to APE1.

[8] = target: G/T mismatch-specific thymine DNA glycosylase (Homo sapiens) (UniProt Q13569); conditions: Compound Concentration 10.0 uM, Hit No;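 also: human TDG cleavage of quenched duplex DNA oligonucleotides coupled to APE1, strand release read as fluorescence at 594 nm, inhibition of TDG activity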
Sequence of G/T mismatch-specific thymine DNA glycosylase (Homo sapiens) (Q13569 whole entry): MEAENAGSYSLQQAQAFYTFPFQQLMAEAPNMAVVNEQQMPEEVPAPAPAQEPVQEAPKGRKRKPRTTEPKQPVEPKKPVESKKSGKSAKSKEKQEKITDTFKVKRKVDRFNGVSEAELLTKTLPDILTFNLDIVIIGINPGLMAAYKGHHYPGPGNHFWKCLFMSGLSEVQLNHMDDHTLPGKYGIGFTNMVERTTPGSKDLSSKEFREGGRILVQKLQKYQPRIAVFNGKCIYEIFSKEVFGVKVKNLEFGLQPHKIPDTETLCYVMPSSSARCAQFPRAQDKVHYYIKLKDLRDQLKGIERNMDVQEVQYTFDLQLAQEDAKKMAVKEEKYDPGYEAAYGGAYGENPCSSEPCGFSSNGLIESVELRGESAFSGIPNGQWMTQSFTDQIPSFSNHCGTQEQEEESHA
Description: Inhibition of TDG by quantifying inhibition of TDG-mediated cleavage and dissociation of quenched duplex DNA oligonucleotides, measured as fluorescence at 594 nm. To generate a functional strand incision and increase turn-over this assay is coupled to APE1.

[9] = target: T4, Single-strand selective monofunctional uracil DNA glycosylase (Homo sapiens) (UniProt Q53HV7); conditions: Compound Concentration 10.0 uM, Hit No;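 also: enzymatic SMUG1 assay coupled with APE1, reading fluorescence at 594 nm released when a quenched double-stranded DNA oligonucleotide substrate is cleaved and separated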
T4 sequence (whole entry): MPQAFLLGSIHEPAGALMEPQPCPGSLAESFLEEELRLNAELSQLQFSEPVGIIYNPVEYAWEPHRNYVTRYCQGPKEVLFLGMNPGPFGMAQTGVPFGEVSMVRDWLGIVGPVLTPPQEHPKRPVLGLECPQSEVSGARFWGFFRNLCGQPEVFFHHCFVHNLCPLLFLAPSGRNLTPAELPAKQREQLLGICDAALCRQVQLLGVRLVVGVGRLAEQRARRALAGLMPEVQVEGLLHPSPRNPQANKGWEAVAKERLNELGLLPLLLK
Description: Inhibition of SMUG1 by quantifying inhibition of SMUG1-mediated cleavage and dissociation of quenched duplex DNA oligonucleotides, measured as fluorescence at 594 nm. To generate a functional strand incision and increase turn-over this assay is coupled to APE1.

[10] = target: Uracil-DNA glycosylase (Homo sapiens) (UniProt P13051); conditions: Compound Concentration 10.0 uM, Hit No;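 also: UNG excision on a quenched double-stranded DNA oligo probe, with APE1 added for strand incision and turnover, read as fluorescence at 594 nm as strands separate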
Sequence of Uracil-DNA glycosylase (Homo sapiens) (P13051 whole entry): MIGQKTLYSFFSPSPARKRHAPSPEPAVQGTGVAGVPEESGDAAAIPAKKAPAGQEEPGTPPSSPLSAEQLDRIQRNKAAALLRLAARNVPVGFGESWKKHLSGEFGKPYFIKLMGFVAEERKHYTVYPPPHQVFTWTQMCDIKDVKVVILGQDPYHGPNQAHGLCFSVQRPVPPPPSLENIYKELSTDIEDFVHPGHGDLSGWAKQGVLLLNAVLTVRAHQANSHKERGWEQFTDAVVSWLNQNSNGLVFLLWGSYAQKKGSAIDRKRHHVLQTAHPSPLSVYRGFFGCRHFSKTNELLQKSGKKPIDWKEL
Description: Inhibition of UNG by quantifying inhibition of UNG-mediated cleavage and dissociation of quenched duplex DNA oligonucleotides, measured as fluorescence at 594 nm. To generate a functional strand incision and increase turn-over this assay is coupled to APE1.

| SMILES | inhibition ([1]; Hit No) [%] | inhibition [2] [%] | inhibition ([3]; Hit No) [%] | inhibition ([4]; Hit No) [%] | inhibition [5] [%] | inhibition [6] [%] | inhibition [7] [%] | inhibition [8] [%] | inhibition [9] [%] | inhibition [10] [%] | inhibition ([3]; Hit Yes) [%] | inhibition ([1]; Hit Yes) [%] | inhibition ([4]; Hit Yes) [%] |
| --- | --- | --- | --- | --- | --- | --- | --- | --- | --- | --- | --- | --- | --- |
| C[C@@H](CN1CCC(Cc2ccccc2)CC1)[C@@H](O)c1ccc(O)cc1 | 2.2 | -8.67 | 12.9 | 3.42 | -0.918 | -7.47 | -5.23 | -7.39 | 4.28 | -6.48 |  |  |  |
| CC(=O)[C@H]1CC[C@H]2[C@@H]3CC[C@H]4C[C@H](O)CC[C@]4(C)[C@H]3CC[C@]12C | 5.51 | 7.89 |  | 9.05 | 25.8 | 1.4 | 31.5 | 19.2 | 13.9 | -1.14 | 46 |  |  |
| CC[C@H]1[C@@H](O)[C@@H]2[C@H](CC[C@]3(C)[C@@H]([C@H](C)CCC(=O)O)CC[C@@H]23)[C@@]2(C)CC[C@@H](O)C[C@@H]12 | 1.55 | 26.2 | 1.34 | 1.53 | 77.2 | 24.4 | 17.5 | 67.3 | 27.8 | 5.49 |  |  |  |
| CC[C@H](C(=O)Nc1ccccc1N1CCCC1)c1ccccc1 | 3.22 | 0.561 | 2.22 | 13.8 | 34.6 | 20.6 | 33.7 | 33.1 | 1.62 | -2.53 |  |  |  |
| COc1ccc(CCCN2CCC(COC(c3ccccc3)c3ccccc3)CC2)cc1 | 8.06 | -0.567 | 13.8 | 4.75 | 49.2 | 35 | 47.2 | 47.6 | 9.31 | -1.12 |  |  |  |
| CC(C)c1cc(Br)c(NC(=O)Nc2cccnc2)c(Br)c1 | 7.55 | -2.73 | -2.73 | 3.27 | 12.5 | 0.0238 | 14.7 | 19.7 | -3.86 | -2.82 |  |  |  |
| O=C(NCC12CC3CC(CC(C3)C1)C2)c1ccccc1Cl | -6.46 | -1.14 | 1.39 | 11.9 | 30.1 | 21.2 | 21.7 | 10.4 | -1.71 | -0.487 |  |  |  |
| CC1(C)CN2C(CS/C(=N\C3CCCCC3)NC3CCCCC3)=CSC2=N1 | -0.86 | 5.96 | 11.3 | 6.38 | 7.88 | 4.05 | 8.86 | -0.781 | -4.87 | -3.07 |  |  |  |
| CCCCCN1C(=O)C2(COc3cc4c(cc32)OCO4)c2ccccc21 (stereo not given) | 0.924 | 1.71 | 18.7 | 0.00926 | 29 | 13.2 | 32.6 | 18.1 | -6.34 | -5.87 |  |  |  |
| Cc1ccc2nc(NCCN)c3ncc(C)n3c2c1 |  | 47.4 |  |  | 53 | 83.5 | 75.9 | 67.6 | 44.2 | 14.9 | 43.3 | 47.1 | 28.9 |
| CN1CCC(c2c[nH]c3ccc(O)cc23)CC1 | -2.39 | -0.678 | 12.9 | -2.51 | 8.69 | -5.79 | -0.341 | 22.5 | -3.74 | -5.58 |  |  |  |
| CC(/C=C1\SC(=S)N(CCCC(=O)Nc2ccc(C(=O)O)c(O)c2)C1=O)=C\c1ccccc1 | 13.7 | 25.4 | 0.0916 | 11.6 | 64 | 46.5 | 34.2 | 53 | -1.92 | -7.24 |  |  |  |
| CCOC(=O)N[C@@H]1CC[C@@H]2[C@@H](C1)C[C@H]1C(=O)O[C@H](C)[C@H]1[C@H]2/C=C/c1ccc(-c2cccc(F)c2)cn1 | -1.73 | 8.48 | 2.66 | 5.28 | -1.19 | 1.43 | -7.15 | 13.4 | 10.5 | -5.33 |  |  |  |
| CSc1ccc(C(=O)/C=C/c2cc(C)c(OC(C)(C)C(=O)O)c(C)c2)cc1 | 2.06 | 18.2 | 2 | 0.467 | 77.3 | 16.2 | -8.02 | 99.6 | 7.83 | -1.57 |  |  |  |
| CCCCCC(O)/C=C/[C@H]1C(=O)CC(O)C1C/C=C\CCCC(=O)O (stereo not given in full) |  | 8.62 | 12.9 | 5.49 | 33.6 | 12.9 | 15.9 | 32 | -9.9 | -3.89 |  | 41.2 |  |
| CCOc1c2c(c(OCC)c3ncccc13)CN(c1ccc(CS(=O)(=O)NC(=O)Cc3ccccc3OC)cc1C)C2=O | 2.01 | 3.01 | 7.05 | 2.17 | 14.3 | 26.6 | -2.33 | 20.4 | -1.24 | -8.19 |  |  |  |
| O=C(O)COc1cccc(-c2ocnc2-c2nc(-c3ccccc3)c(-c3ccccc3)o2)c1 | -0.35 | 18.4 | 8.82 | 1.64 | 49.9 | 65 | 20.4 | 51 | -6.12 | -2.35 |  |  |  |
| CCCCC[C@H](O)/C=C/[C@H]1CCC(=O)[C@@H]1CCCCCCC(=O)O | 4.01 | 3.78 | 1.19 | 1.28 | 17.3 | 15.9 | 6.97 | 11.4 | -3.08 | -4.12 |  |  |  |
| COc1ccc(OC)c(-c2ccc(NC(=O)c3ccncc3F)cc2)c1 | -1.37 | 1.6 | -0.258 | 3.57 | 23.8 | -1.87 | 28 | 15.8 | 24.3 | 2.08 |  |  |  |
| O=[N+]([O-])c1ccc(CN2CCOCCOCCN(Cc3ccc([N+](=O)[O-])cc3)CCOCC2)cc1 | -0.35 | -5.46 | 23.7 | -2.36 | 13.5 | 3.42 | 31.4 | -1.51 | -2.67 | -6.52 |  |  |  |
